In test [1] the target is Sodium-dependent noradrenaline transporter (Homo sapiens) (UniProt P23975). Nature of the test: Binding affinity to NET at 10 uM by displacement assay.
The target in test [2] is Beta-1 adrenergic receptor (Homo sapiens) (UniProt P08588). The test can be described thus: Displacement of [3H](-)CGP12177 from human recombinant beta 1 adrenergic receptor expressed in HEK293 cells at 10 uM. In kind it is cell-based. (In a radioligand displacement assay an active substance lowers the binding of a labelled ligand.)
Beta-1 adrenergic receptor (Homo sapiens), sequence (P08588 whole entry, looked up): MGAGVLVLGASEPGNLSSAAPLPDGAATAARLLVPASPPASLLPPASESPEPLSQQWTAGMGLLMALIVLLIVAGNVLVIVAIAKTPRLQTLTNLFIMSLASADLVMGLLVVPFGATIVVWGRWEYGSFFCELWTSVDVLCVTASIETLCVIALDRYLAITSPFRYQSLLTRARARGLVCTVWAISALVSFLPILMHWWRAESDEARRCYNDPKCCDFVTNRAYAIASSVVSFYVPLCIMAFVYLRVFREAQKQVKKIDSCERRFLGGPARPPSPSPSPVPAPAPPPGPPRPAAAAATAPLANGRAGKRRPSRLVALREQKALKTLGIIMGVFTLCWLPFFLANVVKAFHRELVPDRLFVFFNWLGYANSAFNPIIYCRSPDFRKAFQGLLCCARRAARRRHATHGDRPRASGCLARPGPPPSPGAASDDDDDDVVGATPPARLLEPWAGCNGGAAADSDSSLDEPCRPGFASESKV
Test [3] deals with D(1A) dopamine receptor (Homo sapiens) (UniProt P21728). The test can be described thus: Displacement of radioligand from dopamine D1 receptor at 10 uM.
D(1A) dopamine receptor (Homo sapiens), sequence (P21728 whole entry): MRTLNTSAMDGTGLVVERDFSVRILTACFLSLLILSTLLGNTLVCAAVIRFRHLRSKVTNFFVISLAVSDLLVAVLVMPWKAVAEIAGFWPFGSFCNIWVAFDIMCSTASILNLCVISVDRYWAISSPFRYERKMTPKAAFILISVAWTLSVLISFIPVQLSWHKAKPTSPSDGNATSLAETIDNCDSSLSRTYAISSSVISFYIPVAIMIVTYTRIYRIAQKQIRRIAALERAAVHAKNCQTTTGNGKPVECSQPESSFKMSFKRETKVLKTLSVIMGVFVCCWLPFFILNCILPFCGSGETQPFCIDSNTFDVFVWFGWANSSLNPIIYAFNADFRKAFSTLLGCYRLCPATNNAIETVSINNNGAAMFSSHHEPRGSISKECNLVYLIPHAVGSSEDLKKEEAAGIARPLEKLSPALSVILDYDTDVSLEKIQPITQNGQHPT
Test [4] has as its target T1, Muscarinic acetylcholine receptor M1 (Homo sapiens) (UniProt P11229).
T1 sequence (whole entry): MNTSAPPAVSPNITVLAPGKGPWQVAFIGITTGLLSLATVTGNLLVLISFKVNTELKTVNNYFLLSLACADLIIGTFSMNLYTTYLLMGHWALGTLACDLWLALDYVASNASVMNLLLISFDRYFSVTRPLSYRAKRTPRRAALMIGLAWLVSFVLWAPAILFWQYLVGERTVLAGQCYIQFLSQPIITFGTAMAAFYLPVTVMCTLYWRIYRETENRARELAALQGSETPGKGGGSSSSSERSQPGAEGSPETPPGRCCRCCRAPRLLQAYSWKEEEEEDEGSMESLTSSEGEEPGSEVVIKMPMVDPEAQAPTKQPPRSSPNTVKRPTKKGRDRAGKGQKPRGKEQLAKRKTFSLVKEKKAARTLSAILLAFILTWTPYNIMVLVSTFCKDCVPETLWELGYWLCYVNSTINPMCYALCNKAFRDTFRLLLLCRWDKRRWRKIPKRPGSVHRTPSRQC
Nature of the test: Displacement of radioligand from muscarinic M1 receptor at 10 uM.

The target of test [5] is T2, 5-hydroxytryptamine receptor 1A (Homo sapiens) (UniProt P08908).
T2 sequence (whole entry): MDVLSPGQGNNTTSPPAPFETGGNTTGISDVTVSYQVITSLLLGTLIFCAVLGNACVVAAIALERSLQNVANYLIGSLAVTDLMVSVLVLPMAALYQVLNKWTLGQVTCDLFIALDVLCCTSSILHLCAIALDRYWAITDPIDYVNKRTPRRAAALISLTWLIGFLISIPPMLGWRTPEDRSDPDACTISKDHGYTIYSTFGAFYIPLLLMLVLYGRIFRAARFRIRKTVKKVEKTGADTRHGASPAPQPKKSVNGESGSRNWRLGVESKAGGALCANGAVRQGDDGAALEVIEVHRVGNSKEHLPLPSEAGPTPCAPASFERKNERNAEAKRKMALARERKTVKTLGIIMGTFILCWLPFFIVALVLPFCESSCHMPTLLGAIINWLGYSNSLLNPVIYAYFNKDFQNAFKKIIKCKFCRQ
Nature of the test: Displacement of radioligand from 5HT1A receptor at 10 uM by displacement assay.

Test [6] has as its target Sodium-dependent serotonin transporter (Homo sapiens) (UniProt P31645). Nature of the test: Binding affinity to SERT at 10 uM by displacement assay.
Test [7] addresses T3, Type-1 angiotensin II receptor (Homo sapiens) (UniProt P30556).
T3 sequence (whole entry): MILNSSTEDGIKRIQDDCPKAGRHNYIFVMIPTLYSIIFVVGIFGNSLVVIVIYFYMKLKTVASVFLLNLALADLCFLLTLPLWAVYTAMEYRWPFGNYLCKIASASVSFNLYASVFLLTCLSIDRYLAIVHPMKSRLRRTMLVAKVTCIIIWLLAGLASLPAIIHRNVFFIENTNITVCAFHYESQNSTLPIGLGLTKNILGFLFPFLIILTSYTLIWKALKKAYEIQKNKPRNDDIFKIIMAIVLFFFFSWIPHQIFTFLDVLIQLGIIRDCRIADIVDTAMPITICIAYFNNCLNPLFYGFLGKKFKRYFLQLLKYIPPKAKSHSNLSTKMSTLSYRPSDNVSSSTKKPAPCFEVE
Nature of the test: Displacement of [125I][Sar1,Ile8]-AT2 from human recombinant AT1 angiotensin receptor expressed in HEK293 cells at 10 uM. It is filed as cell-based.

In test [8] the target is T4, Cholecystokinin receptor type A (Homo sapiens) (UniProt P32238).
T4 sequence (whole entry): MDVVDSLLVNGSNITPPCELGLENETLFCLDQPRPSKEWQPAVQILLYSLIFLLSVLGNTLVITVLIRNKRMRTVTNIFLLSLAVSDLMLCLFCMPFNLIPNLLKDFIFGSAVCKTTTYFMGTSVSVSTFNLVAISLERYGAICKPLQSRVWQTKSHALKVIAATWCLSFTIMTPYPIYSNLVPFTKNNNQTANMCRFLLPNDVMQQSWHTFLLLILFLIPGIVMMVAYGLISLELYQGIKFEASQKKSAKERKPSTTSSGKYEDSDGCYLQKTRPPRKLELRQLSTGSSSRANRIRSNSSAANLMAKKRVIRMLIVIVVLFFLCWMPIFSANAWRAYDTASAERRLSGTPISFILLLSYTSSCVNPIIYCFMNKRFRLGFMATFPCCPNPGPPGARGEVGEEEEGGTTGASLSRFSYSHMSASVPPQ
Nature of the test: Displacement of radioligand from cholecystokinin A receptor at 10 uM.

Test [9] is described as follows: Binding affinity to central-type benzodiazepine receptor at 10 uM by displacement assay.
In test [10] the target is T5, Endothelin-1 receptor (Homo sapiens) (UniProt P25101).
T5 sequence (whole entry): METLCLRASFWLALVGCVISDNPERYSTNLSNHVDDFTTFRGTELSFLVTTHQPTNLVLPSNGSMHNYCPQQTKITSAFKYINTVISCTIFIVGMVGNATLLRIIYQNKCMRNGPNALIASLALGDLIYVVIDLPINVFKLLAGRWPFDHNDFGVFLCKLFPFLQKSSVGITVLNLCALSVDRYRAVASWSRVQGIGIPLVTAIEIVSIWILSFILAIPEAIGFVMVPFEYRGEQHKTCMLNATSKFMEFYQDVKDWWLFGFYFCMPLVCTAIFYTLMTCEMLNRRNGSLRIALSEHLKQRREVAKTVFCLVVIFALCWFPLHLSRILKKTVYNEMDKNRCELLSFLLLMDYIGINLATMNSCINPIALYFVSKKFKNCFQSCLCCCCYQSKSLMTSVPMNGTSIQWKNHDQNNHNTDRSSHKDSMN
The test can be described thus: Displacement of [125I]endothelin-1 from human recombinant endothelin A receptor expressed in CHO cells. In kind it is cell-based.

Test [11] addresses D(2) dopamine receptor (Homo sapiens) (UniProt P14416). Nature of the test: Displacement of radioligand from dopamine D2 receptor at 10 uM.
Test [12] deals with Adenosine receptor A2a (Homo sapiens) (UniProt P29274). The test can be described thus: Displacement of [3H]CGS21680 from human recombinant adenosine A2A receptor expressed in HEK293 cells at 10 uM. In kind it is cell-based.
Adenosine receptor A2a (Homo sapiens), sequence (P29274 whole entry): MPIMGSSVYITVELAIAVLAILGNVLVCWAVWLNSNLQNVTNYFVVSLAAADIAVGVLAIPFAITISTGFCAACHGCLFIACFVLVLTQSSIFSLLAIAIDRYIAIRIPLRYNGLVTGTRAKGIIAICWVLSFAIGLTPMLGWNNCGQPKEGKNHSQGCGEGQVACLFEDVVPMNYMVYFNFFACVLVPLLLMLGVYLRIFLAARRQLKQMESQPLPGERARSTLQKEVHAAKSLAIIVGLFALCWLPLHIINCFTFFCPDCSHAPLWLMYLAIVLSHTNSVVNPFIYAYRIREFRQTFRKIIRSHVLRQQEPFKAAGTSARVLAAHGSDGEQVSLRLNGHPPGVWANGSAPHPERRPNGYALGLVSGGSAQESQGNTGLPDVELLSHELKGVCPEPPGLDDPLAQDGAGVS
For test [13], the target named is Adrenergic receptor alpha-1 (Rattus norvegicus) (UniProt P15823+P23944+P43140). Nature of the test: Displacement of [3H]prazosin from adrenergic receptor 1 alpha in rat cerebral cortex at 10 uM. In kind it is tissue-based.
The species named for test [14] is Rattus norvegicus. Nature of the test: Displacement of [3H]DTG from sigma opioid receptor in rat cerebral cortex. In kind it is tissue-based.
Test [15] can be described thus: Displacement of radioligand from opiate receptor at 10 uM.
Test [16] has as its target 5-hydroxytryptamine receptor 1B (Homo sapiens) (UniProt P28222). The test can be described thus: Displacement of radioligand from 5HT1B receptor at 10 uM by displacement assay.

Sodium-dependent noradrenaline transporter (Homo sapiens), sequence (P23975 whole entry): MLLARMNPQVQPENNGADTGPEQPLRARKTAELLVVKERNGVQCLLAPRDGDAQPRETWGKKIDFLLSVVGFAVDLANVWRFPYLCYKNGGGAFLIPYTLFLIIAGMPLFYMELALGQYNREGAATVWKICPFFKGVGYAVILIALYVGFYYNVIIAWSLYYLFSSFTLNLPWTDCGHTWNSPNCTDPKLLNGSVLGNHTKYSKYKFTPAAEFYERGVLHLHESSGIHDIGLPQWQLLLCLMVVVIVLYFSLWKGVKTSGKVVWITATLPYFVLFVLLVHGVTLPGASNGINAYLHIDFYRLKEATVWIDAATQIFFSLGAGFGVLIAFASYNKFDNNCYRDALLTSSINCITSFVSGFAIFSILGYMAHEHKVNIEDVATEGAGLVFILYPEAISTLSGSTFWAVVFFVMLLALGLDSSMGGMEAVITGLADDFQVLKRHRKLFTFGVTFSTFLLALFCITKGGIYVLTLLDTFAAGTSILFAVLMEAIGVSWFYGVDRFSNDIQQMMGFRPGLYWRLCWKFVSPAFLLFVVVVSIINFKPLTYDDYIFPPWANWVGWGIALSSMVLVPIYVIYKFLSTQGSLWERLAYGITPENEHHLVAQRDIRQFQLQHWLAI
D(2) dopamine receptor (Homo sapiens), sequence (P14416 whole entry): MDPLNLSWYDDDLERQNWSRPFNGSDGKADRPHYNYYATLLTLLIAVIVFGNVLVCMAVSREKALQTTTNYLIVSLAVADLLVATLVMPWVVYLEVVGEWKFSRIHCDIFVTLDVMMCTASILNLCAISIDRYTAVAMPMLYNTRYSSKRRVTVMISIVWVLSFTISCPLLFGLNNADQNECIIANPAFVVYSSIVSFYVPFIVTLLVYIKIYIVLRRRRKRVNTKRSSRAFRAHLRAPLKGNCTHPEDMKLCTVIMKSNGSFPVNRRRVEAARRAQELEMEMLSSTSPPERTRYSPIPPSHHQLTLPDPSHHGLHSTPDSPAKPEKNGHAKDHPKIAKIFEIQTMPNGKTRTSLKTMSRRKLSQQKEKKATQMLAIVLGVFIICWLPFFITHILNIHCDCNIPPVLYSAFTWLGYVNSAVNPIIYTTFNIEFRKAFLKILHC
Sodium-dependent serotonin transporter (Homo sapiens), sequence (P31645 whole entry, looked up): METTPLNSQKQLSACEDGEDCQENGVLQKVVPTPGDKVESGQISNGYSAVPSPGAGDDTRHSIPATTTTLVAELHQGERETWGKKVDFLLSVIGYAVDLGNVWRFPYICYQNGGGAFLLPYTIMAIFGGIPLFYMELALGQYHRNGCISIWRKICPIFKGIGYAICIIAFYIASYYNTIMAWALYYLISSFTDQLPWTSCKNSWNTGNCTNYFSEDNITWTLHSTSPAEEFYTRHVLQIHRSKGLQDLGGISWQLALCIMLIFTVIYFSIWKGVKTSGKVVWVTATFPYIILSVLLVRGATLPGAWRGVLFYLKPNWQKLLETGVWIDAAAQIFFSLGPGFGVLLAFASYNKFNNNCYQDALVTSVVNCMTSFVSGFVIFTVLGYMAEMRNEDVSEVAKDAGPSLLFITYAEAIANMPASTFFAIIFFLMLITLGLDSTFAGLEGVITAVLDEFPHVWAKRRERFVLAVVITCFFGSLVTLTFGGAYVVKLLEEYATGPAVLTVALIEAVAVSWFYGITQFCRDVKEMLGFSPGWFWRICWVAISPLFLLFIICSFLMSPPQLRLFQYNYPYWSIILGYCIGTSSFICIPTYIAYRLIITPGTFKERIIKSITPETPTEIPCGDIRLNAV
5-hydroxytryptamine receptor 1B (Homo sapiens), sequence (P28222 whole entry): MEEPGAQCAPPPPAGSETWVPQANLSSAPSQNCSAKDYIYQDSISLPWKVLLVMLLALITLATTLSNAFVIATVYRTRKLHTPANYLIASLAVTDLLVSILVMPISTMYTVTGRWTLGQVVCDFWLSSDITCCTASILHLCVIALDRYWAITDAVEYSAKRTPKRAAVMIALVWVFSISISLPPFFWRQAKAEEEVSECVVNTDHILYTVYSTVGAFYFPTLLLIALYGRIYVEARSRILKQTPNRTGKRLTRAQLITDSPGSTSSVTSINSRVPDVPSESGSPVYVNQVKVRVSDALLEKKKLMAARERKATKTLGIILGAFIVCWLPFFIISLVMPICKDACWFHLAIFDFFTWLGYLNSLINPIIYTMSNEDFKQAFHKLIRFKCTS

As for `Cn1/c(=N/NC(=O)CC2CCCC2)sc2cc(OC(F)(F)F)ccc21`, the Activity in [1] came out at 34%; in [2] it was 0%; in test [3], 0%; in test [4] it was 34%; in test [5] it was 0%; in [6], 50%. In addition, the Activity worked out at 18% in [7]; 53% in [8]; 0% in test [9]; 0% in test [10]; 0% in test [11]; 12% in [12]. Moreover, the Activity in test [13] was determined as 0%; in [14], 0%; in test [15], 16%; in test [16] it was 0%.
In the case of `Cn1/c(=N/NC(=O)CC(C)(C)C)sc2cc(OC(F)(F)F)ccc21`, the Activity in test [1] is 14%; in test [2], 0%; in [3], 0%; in test [4], 0%; in test [5], 0%; in test [6], 20%. The Activity in test [7], in [8], in test [9], in [10], in test [11] and in [12] was 0% in each case. Also, the Activity in test [13], in [14], in test [15] and in test [16] was 0% throughout.
As for `CC(C)OC(=O)N/N=c1\sc2cc(OC(F)(F)F)ccc2n1C`, the Activity in test [1] turned out to be 43%; in test [2] it was 11%; in test [3], 0%; in test [4] it was 21%; in [5] it was 18%; in test [6] it was 16%. The Activity in [7] turned out to be 14%; in [8], 11%; in test [9] it was 22%; in test [10] it was 0%; in test [11], 0%; in test [12], 10%. Further, the Activity is 11% in test [13], 19% in test [14], 11% in [15] and 0% in test [16].

Source of the values: ChEMBL document CHEMBL1157731, “Novel KCNQ2/Q3 agonists as potential therapeutics for epilepsy and neuropathic pain” (J Med Chem, 2010).
